# Source: US20160128336A1, “MICROBIAL AGRICULTURE” (DSM IP ASSETS B.V., priority 2013, published 2016)
# Tested on: Colletotrichum gloeosporioides (CBS272.51)
# Experiment: Agar plug bio-assay on YME agar, fungal colony radius towards Streptomyces or natamycin plug
# Format: cell-based
# Details: Table 7; 10 ppm natamycin in agar plug (5% w/w methanol), 7 days at 28° C.
# Method: Three fungal plant pathogens were tested against the selected S. natalensis strains: Fusarium oxysporum f.sp. lycopersici (CBS414.90), Colletotrichum gloeosporioides (CBS272.51) and Alternaria alternata (CBS103.33). Fusarium oxysporum f.sp. lycopersici is a soil borne fungus causing yield loss in e.g. tomato crops (Fusarium Wilt). Colletotrichum gloeosporioides causes e.g. anthracnose, a plant disease recognizable by dark brown lesions on leaves and fruits. Alternaria alternata is a worldwide occurring saprophyte that can cause phytopathogenic reactions in economically important host plants. The selected S. natalensis strains were tested against these fungal plant pathogens as described below.
# Frozen vials (glycerol stocks) or freeze dried tubes from the selected S. natalensis strains were transferred to 100 ml baffled Erlenmeyer flasks containing 20 ml of Yeast Malt Extract broth (YME). […]
# The bio-assay was done as follows. […] After 7 days the radius of the fungal colony was measured in the direction of the opposite agar plug (Streptomyces sample). […] The inhibition zone (in percentage) was calculated by using the following formula: 100% * (r0-r1)/r0, wherein r0is the radius (in mm, corrected for the plug radius) of the fungal colony from the control sample and wherein r1 is the radius (in mm, corrected for the plug radius) of the fungal colony from the Streptomyces inhibited sample. […]
smiles,measurement,value
"C[C@@H]1C/C=C/C=C/C=C/C=C/[C@H](O[C@@H]2O[C@H](C)[C@@H](O)[C@H](N)[C@@H]2O)C[C@@H]2O[C@](O)(C[C@@H](O)C[C@H]3O[C@@H]3/C=C/C(=O)O1)C[C@H](O)[C@H]2C(=O)O [Natamycin, natamycin]",Average inhibition zone (in %),not as high
